# Assay results reported in patent US20150157597A1, “NEURODEGENERATIVE DISEASE TREATMENT USING JAK/STAT INHIBITION” (Uinversity of South Florida, priority 2007, published 2015).
# Entries after “also recorded” stand apart in the source; their conditions may differ.
# Assays:
# [1] = test system: primary cultured neuronal cells; assay: Western blot band density ratio of Bcl-xL to Bax in primary neuron lysates; type: cell-based, mouse; conditions: 12 h; for Neuronal injury, Western blot band density ratio of Bcl-xL to Bax: JAK inhibitor 50 nM, IFN-γ 100 U/ml with gp120 or Tat 250 ng/ml
# Experimental: (§1) Primary cultures of mouse cortical neurons were prepared as described previously (Chin et al., 1997). Briefly, neuronal cells were isolated from newborn C57BL16 mice and seeded in 6-well tissue-culture plates at 2×10^5 cells/well for 48 h. […] In addition, to test whether EGCG could inhibit JAK/STAT1 signaling and neuronal damage induced by gp120 or/and Tat in the presence of IFN-γ, EGCG was also employed as the co-treatment. Cell culture supernatants were used for LDH assay while cell lysates were used for Western blot analysis of Bcl-xL and Bax proteins.
# (§2) Normal C57BL/6 primary cultured neuronal cells as well as STAT1-deficient primary neuronal cells were isolated and cultured as described previously (Chin et al., 1997). Normal cells were co-treated with either gp120 or Tat (250 ng/ml) with or without IFN-γ (100 U/ml) and/or JAK inhibitor (50 nM). STAT1-deficient cells were treated with HIV-1 gp120 or HIV-1 Tat (250 ng/ml) in the presence or absence of IFN-γ (100 U/ml) for 12 h. At the end of the treatment period, neuronal cells were washed in ice-cold PBS three times and lysed in ice-cold lysis buffer. After incubation for 30 mm on ice, samples were centrifuged at high speed for 15 mm, and supernatants were collected. Total protein content was estimated by using the Bio-Rad protein assay. For phosphorylation of JAK1, membranes were first hybridized with phosphospecific Tyr1022/1023 JAK1 antibody (Cell Signaling Technology, Beverly, Mass.) and then stripped and finally analyzed by total JAK1. For STAT1 phosphorylation, membranes were probed with a phospho-Ser727 STAT1 antibody (Cell Signaling Technology), stripped with stripping solution, and then re-probed with an antibody that recognizes total STAT1 (Cell Signaling Technology). Alternatively, membranes with identical samples were probed either with phospho-JAK or STAT1 or with an antibody that recognizes total JAK or STAT1. Immunoblotting was performed with a primary antibody, followed by an anti-rabbit HRP-conjugated IgG secondary antibody as a tracer. After being washed in TBS, the membranes were incubated in the luminol reagent and exposed to film.
# Western blot was performed as described previously (Tan et al., 2002). Briefly, for the in vivo studies left hemispheres of mouse brains were lysed in ice-cold lysis buffer and an aliquot corresponding to 50 μg of total protein was electrophoretically separated using 16.5% Tris-tricine gels. Electrophoresed proteins were then transferred to PVDF membranes (BioRad), washed in dH2O, and blocked for 1 h at ambient temperature in Tris-buffered saline containing 5% (w/v) nonfat dry milk. […] Densitometric analysis was done using the Fluor-S MultiImager™ with Quantity One™ software (Bio-Rad). […]
# [2] = test system: primary cultured neuronal cells; assay: LDH release assay, primary cultured neurons challenged with gp120/Tat and IFN-γ; type: cell-based, mouse; conditions: for Neuronal injury, LDH release: JAK inhibitor 50 nM, IFN-γ 100 U/ml with gp120 or Tat 250 ng/ml; for Neuronal injury, LDH release / LDH release: 12 h
# Experimental: as §1, §2
# LOU release assay (Promega, Madison, Wis.) was performed as previously described (Tan et al., 2002). Briefly, after treatment at a variety of conditions, cell cultured media were collected for LOU release assay. Total LDH release was represent maximal lysis of target cells with 5% Triton X-100. Data are presented as mean±SD of LOU release.
# JAK1 = JAK1 phosphorylation by Western blot in primary cultured neurons; type: cell-based, mouse
# Experimental: as §2, with “Alternatively, membranes with identical samples were probed either with phospho-JAK or STAT1 or with an antibody that recognizes total JAK or STAT1. Immunoblotting was performed with a primary antibody, followed by an anti-rabbit HRP-conjugated IgG secondary antibody as a tracer. After being washed in TBS, the membranes were incubated in the luminol reagent and exposed to film.” left out
# (§3) Western blot was performed as described previously (Tan et al., 2002). […] Densitometric analysis was done using the Fluor-S MultiImager™ with Quantity One™ software (Bio-Rad). […]
# STAT1 = STAT1 phosphorylation by Western blot in primary cultured neurons; type: cell-based, mouse
# Experimental: as §2, with “Alternatively, membranes with identical samples were probed either with phospho-JAK or STAT1 or with an antibody that recognizes total JAK or STAT1. Immunoblotting was performed with a primary antibody, followed by an anti-rabbit HRP-conjugated IgG secondary antibody as a tracer. After being washed in TBS, the membranes were incubated in the luminol reagent and exposed to film.” left out
# as §3
# C57BL/6 mice [3] = assay: In vivo neurotoxicity, Bcl-xL/Bax Western blot of brain homogenates; parameters: species or system mouse; conditions: 24 h
# Description: (§4) Animals were anesthetized using isoflurane (chamber induction at 4-5% isoflurane, intubation and maintenance at 1-2%). After reflexes were checked to ensure that mice were unconscious, they were positioned on a stereotaxic frame (Stoelting Lab Standard) with ear-bars positioned and jaws fixed to a biting plate. The axis coordinates were taken from a mouse brain atlas, and a 5-mm sterile plastic guide cannula (21 GA; Plastic One, Inc., Roanoke, Va.) was implanted into the left lateral ventricle delimited from the stereotaxic coordinates (coordinates relative to bregma: −0.6 mm anterior/posterior, +1.2 mm medial/lateral, and −3.0 mm dorsal/ventral) using the stereotaxic device (Stoelting Lab Standard) and an attached probe (cannula) holder. IFN-γ (200 U/mouse) with HIV-1 protein gp120 (500 ng/mouse) or Tat (500 ng/mouse) or PBS (10 μl) was administered at the rate of 1 μl/min using a Hamilton syringe (modified with a solder stop to prevent over insertion of the needle) through the implanted cannula. Correctness of the injection was confirmed by trypan blue dye administration and histological examination. The wounds were closed with 1-2 staples and mice were all observed until anesthesia had cleared. […]
# as §3
# C57BL/6 mice [4] = assay: In vivo neurotoxicity, NeuN staining of cortical brain sections after i.c.v. injection; parameters: species or system mouse; conditions: 24 h
# Description: as §4, with “cannula.” for “cannula. Correctness of the injection was confirmed by trypan blue dye administration and histological examination. The wounds were closed with 1-2 staples and mice were all observed until anesthesia had cleared.”
# At sacrifice, mice were anesthetized with isofluorane and transcardially perfused with ice-cold physiological saline containing heparin (10 U/ml). […] After another cycle of washing, floating sections were mounted onto slides, dehydrated and coverslipped with Vectashield fluorescence mounting media (Vector Labs., Burlingame, Calif.). […]
# [5] = EGCG at a range of doses co-incubated with IFN-γ 100 U/ml, 60 min
# [6] = EGCG 20 μM, gp120 or Tat 500 ng/ml with IFN-γ 100 U/ml
# [7] = EGCG 50 mg/kg i.p., i.c.v. IFN-γ/gp120 or IFN-γ/gp120/Tat
# [8] = IFN-γ 100 U/ml, time-dependently
# [9] = IFN-γ 100 U/ml added to gp120 or Tat 250 ng/ml
compound,measurement,setting,value
"CC(C)(C)c1nc2c3ccc(F)cc3c3c(=O)[nH]ccc3c2[nH]1 [JAK inhibitor, 2-(1,1-Dimethylethyl)-9-fluoro-3,6-dihydro-7H-benz[h] -imidaz[4,5-f] isoquinolin-7-one]","Neuronal injury, Western blot band density ratio of Bcl-xL to Bax",[1],significantly inhibited
same,"Neuronal injury, Western blot band density ratio of Bcl-xL to Bax",[1]; listed as JAK1 inhibitor,greatly reduced
same,"Cell death and apoptosis indicators (LDH, Bcl-xL/Bax) versus control treatment group","[2]; JAK1 inhibitor, combination of gp120 and Tat included in the treatment",did not return to baseline levels
same,"Neuronal injury, LDH release",[2],significantly inhibited
same,"Neuronal injury, LDH release",[2]; listed as JAK1 inhibitor,greatly reduced
(-)-epigallocatechin-3-gallate [EGCG],JAK1 phosphorylation,JAK1; [5],dose-dependent inhibition
same,STAT1 phosphorylation,STAT1; [5],dose-dependent inhibition
same,Ratio of Bcl-xL to Bax,[1]; [6],increased
same,Ratio of Bcl-xL to Bax in brain homogenates,C57BL/6 mice [3]; [7],significant increases
same,LDH release,[2]; [6],decreased
same,Neuronal damage in cortical regions (NeuN),C57BL/6 mice [4]; [7],marked reduction; also recorded: protective
"IFN-γ: murine recombinant IFN-γ; R&D Systems; type II interferon, soluble cytokine",Phosphorylation of JAK1,JAK1; [8],stimulates phosphorylation
same,Phosphorylation of STAT1,STAT1; [8],stimulates phosphorylation
same,Band density ratio of Bcl-xL to Bax,[1]; [9],reduced
same,Ratio of Bcl-xL to Bax in brain homogenates,C57BL/6 mice [3]; i.c.v. IFN-γ 200 U/mouse with gp120 or Tat 500 ng/mouse,significant reduction
same,LDH release,[2]; [9],significantly increased
same,Neuronal damage in cortical brain regions (NeuN),"C57BL/6 mice [4]; i.c.v. IFN-γ 200 U/mouse plus gp120 500 ng/mouse vs controls, IFN alone or gp120 alone",marked increase
